Laboratory results published in US12336973B2, “Cancer therapeutic compositions and methods targeting DNAse1L3” (Providence Health & Services—Oregon, priority 2020, dated 2025).

System: dendritic cells
Test: Dendritic cell maturation (CCR7 expression by flow cytometry) in co-culture with untreated or irradiated cancer cells
Format: cell-based
Details: DCs cultured with untreated (0Gy) or irradiated (8Gy) cancer cells; 0, 50 or 100 micromolar FCA; flow cytometry 24 hours after culturing
Method: FIG. 4 depicts CCR7 expression in DCs that were cultured with cancer cells, where the cancer cells were untreated (0Gy) or irradiated (8Gy). These co-cultures were treated with 0, 50, or 100 micromolar Fmoc-d-cyclohexylalanine (FCA) to inhibit DNAse1L3.
Dendritic cells were cultured (with untreated or irradiated cancer cells) and treated with increasing doses of FCA, an inhibitor of DNAse1L3 (FIG. 4). Cancer cells were co-cultured with dendritic cells and were treated with 0, 50, or 100 micromolar Fmoc-d-cyclohexylalanine (FCA) to inhibit DNAse1L3.
CCR7 expression on DCs was assessed by flow cytometry 24 hours after culturing.

## O=C(N[C@H](CC1CCCCC1)C(=O)O)OCC1c2ccccc2-c2ccccc21 [FCA, Fmoc-d-cyclohexylalanine]
  dendritic cell maturation assessed by upregulation of markers including CCR7: stimulates DC maturation
